Reference: article PMC11946679 (Toxics, 2025)
Read-outs that look alike come from different tables or passages of the source.

How the values were obtained:
[1] = test system: human peripheral blood lymphocytes; assay type: cell-based; conditions: 3 h
Text: While screening microscope preparations to determine trends in the levels of the main CBMN assay descriptors, nonviable cells were also simultaneously counted on the same slides. Their discrimination was based on the specific morphological features typical for apoptosis or necrosis. It is well known that the biological significance of these phenomena differs deeply, and that the determination of the predominant type of cell death represents a very important issue in each experimental setting.
For each experimental group, we also calculated the ratio between the recorded number of nonviable cells and the cells in apoptosis (Table 5). According to reference, a ratio ≤ 1 means a prevalence of apoptotic events that induce cell death, while a ratio > 1 indicates the acute toxicity of the tested substance that promotes necrosis.

[2] = test system: human peripheral blood lymphocytes; assay: CBMN cytome assay: lymphocyte proliferation (M1-M4, CBPI, RI); assay type: cell-based; conditions: 3 h
Description: On the same slides, parameters of cell proliferation and cytotoxicity were also evaluated, in line with the OECD protocol.

human lymphocytes = test system: human lymphocytes; set-up: method as in PMID 27461151; conditions: galangin at 10-20,000 μmol/L; cited from earlier work
[3] = 1× + IRI 9.0 mg/L, propolis 1.36 mg/L, galangin 0.02 mg/L
[4] = 5× + IRI 9.0 mg/L, propolis 6.8 mg/L, galangin […]
[5] = 10× + IRI 9.0 mg/L, propolis 13.6 mg/L, galangin 0.22 mg/L
[6] = scored along with 4000 binucleated cells, 1× + IRI 9.0 mg/L, propolis 1.36 mg/L, galangin 0.02 mg/L
[7] = scored along with 4000 binucleated cells, 5× + IRI 9.0 mg/L, propolis 6.8 mg/L, galangin […]
[8] = scored along with 4000 binucleated cells, 10× + IRI 9.0 mg/L, propolis 13.6 mg/L, galangin 0.22 mg/L
[9] = 1× alone, propolis 1.36 mg/L, galangin 0.02 mg/L
[10] = 5× alone, propolis 6.8 mg/L, galangin […]
[11] = 10× alone, propolis 13.6 mg/L, galangin 0.22 mg/L

Compound: O=c1c(O)c(-c2ccccc2)oc2cc(O)cc(O)c12 [Galangin]
- Ratio (nonviable cells and cells in apoptosis) [1, 3]: 0.5
- Ratio (nonviable cells and cells in apoptosis) [1, 4]: 0.5
- Ratio (nonviable cells and cells in apoptosis) [1, 5]: 0.6
- Ratio (nonviable cells and cells in apoptosis) ([1]; male, human, 0.02 mg/L): 0.5
- Total No. of Cells in Apoptosis ([1]; male, human, 0.02 mg/L): 7
- Total No. of Nonviable Cells ([1]; male, human, 0.02 mg/L): 14
- Ratio (nonviable cells and cells in apoptosis) ([1]; male, human, 0.22 mg/L): 0.7
- Total No. of Cells in Apoptosis ([1]; male, human, 0.22 mg/L): 8
- Total No. of Nonviable Cells ([1]; male, human, 0.22 mg/L): 12
- Total No. of Cells in Apoptosis [1, 6]: 28
- Total No. of Nonviable Cells [1, 6]: 52
- Total No. of Cells in Apoptosis [1, 7]: 23
- Total No. of Nonviable Cells [1, 7]: 42
- Total No. of Cells in Apoptosis [1, 8]: 19
- Total No. of Nonviable Cells [1, 8]: 34
- % of Cells with 1 to 4 Nuclei M1 [2, 3]: 24.5 ^↑L %
- % of Cells with 1 to 4 Nuclei M2 [2, 3]: 72.3 ^H %
- % of Cells with 1 to 4 Nuclei M3 [2, 3]: 1.4 ^↓ %
- % of Cells with 1 to 4 Nuclei M4 [2, 3]: 1.8 ^↓ %
- CBPI [2, 3]: 1.788
- Replication Index (%) [2, 3]: 80.1%
- % of Cells with 1 to 4 Nuclei M1 [2, 9]: 13.4%
- % of Cells with 1 to 4 Nuclei M2 [2, 9]: 74.7%
- % of Cells with 1 to 4 Nuclei M3 [2, 9]: 4.0%
- % of Cells with 1 to 4 Nuclei M4 [2, 9]: 7.9%
- CBPI [2, 9]: 1.986
- Replication Index (%) [2, 9]: 100.3%
- % of Cells with 1 to 4 Nuclei M1 [2, 4]: 22.6 ^↑L %
- % of Cells with 1 to 4 Nuclei M2 [2, 4]: 74.2 ^H %
- % of Cells with 1 to 4 Nuclei M3 [2, 4]: 1.6 ^↓ %
- % of Cells with 1 to 4 Nuclei M4 [2, 4]: 1.6 ^↓ %
- CBPI [2, 4]: 1.806
- Replication Index (%) [2, 4]: 82.0%
- % of Cells with 1 to 4 Nuclei M1 [2, 10]: 13.3%
- % of Cells with 1 to 4 Nuclei M2 [2, 10]: 76.9 ^↑ %
- % of Cells with 1 to 4 Nuclei M3 [2, 10]: 3.3 ^↓ %
- % of Cells with 1 to 4 Nuclei M4 [2, 10]: 6.5%
- CBPI [2, 10]: 1.967
- Replication Index (%) [2, 10]: 98.3%
- % of Cells with 1 to 4 Nuclei M1 [2, 5]: 23.1 ^↑L %
- % of Cells with 1 to 4 Nuclei M2 [2, 5]: 74.6 ^H %
- % of Cells with 1 to 4 Nuclei M3 [2, 5]: 1.0 ^↓L %
- % of Cells with 1 to 4 Nuclei M4 [2, 5]: 1.3 ^↓ %
- CBPI [2, 5]: 1.792
- Replication Index (%) [2, 5]: 80.5%
- % of Cells with 1 to 4 Nuclei M1 [2, 11]: 10.8 ^↓ %
- % of Cells with 1 to 4 Nuclei M2 [2, 11]: 79.0 ^↑ %
- % of Cells with 1 to 4 Nuclei M3 [2, 11]: 4.0%
- % of Cells with 1 to 4 Nuclei M4 [2, 11]: 6.2%
- CBPI [2, 11]: 1.995
- Replication Index (%) [2, 11]: 101.2%
- genotoxicity (human lymphocytes): not genotoxic per se
